Data from patent US8242088B2, “Carrier vectors through an epithelium with tight junctions” (Centre National de la Recherche Scientifique, priority 2000, dated 2012).
No end group written: not given here.

System: MDCK (Madin-Darby Canine Kidney) cells
Assay: Passage across an epithelium with tight junctions (TRANSWELL system)
Format: in vitro ADME
Details: for passage into the apical compartment: Example 4: basolateral compartment, 10 μM, 30 minutes at 370° C.
Method: The passage of the Penet and NES-Penet peptides across an epithelium with tight junctions was evaluated using the device (TRANSWELL system, CORNING-COSTAR) represented in FIG. 3.
This device comprises two compartments (1, 2) separated by a microporous polyester membrane (3) on which an epithelium (4) consisting of MDCK (Madin-Darby Canine Kidney) cells has been established. The cells are seeded and grow to confluence.
The compartment (1) in contact with the microporous membrane and the basolateral pole of the cells is referred to as the basolateral compartment. The compartment (2), in contact with the apical pole of the cells, is referred to as the apical compartment.
Each of the compartments is filled with medium consisting of the following: Minimum Essential Medium with Earle Salt (MEM), 2 mM glutamine, 2 mM Hepes, pH 7, 5 U/ml penicillin, 5 μg/ml streptomycin, supplemented with a mixture of protease inhibitors.
For each experiment, the integrity of the tight junctions is controlled by measuring the resistance between the two compartments (R>2000Ω/cm^2).
Moreover, the tightness of the epithelium was also verified by adding […] inulin (6.5×10^5 cpm/compartment), either to the apical compartment or to the basolateral compartment, and measuring the radioactivity in the other compartment 180 minutes later. […]
The peptides are precipitated by adding 10% trichloro-acetic acid (TCA), and taken up in boiling Laemmli medium. […] The presence of the Penet-1 or NES-Penet peptides in the starting compartment, in the end compartment, or inside the cells, is detected by revelation with streptavidin-peroxidase as indicated in Example 1 above. […]
At the end of the incubation, the contents of the basolateral compartment and of the apical compartment, and that of the cells, were analyzed as described above in order to detect the presence of the NES-Penet peptide.
Furthermore, the passage of the peptides across an epithelium with tight junctions was evaluated using the device described in Example 2 above. […]

Compound | passage into the apical compartment | degradation of the peptide during passage
CC[C@H](C)[C@H](NC(=O)[C@H](CCCCN)NC(=O)[C@@H]1CCCN1C(=O)[C@H](CCC(N)=O)NC(=O)[C@H](CCCNC(=N)N)NC(=O)[C@H](CCC(=O)O)NC(=O)[C@H](CC(N)=O)NC(=O)[C@H](CC(C)C)NC(=O)CNC(=O)[C@H](CC(C)C)NC(=O)[C@H](CCC(=O)O)NC(=O)[C@H](CCC(N)=O)NC(=O)[C@H](C)NC(=O)[C@H](CC(C)C)NC(=O)[C@H](CO)NC(=O)[C@H](CCC(N)=O)NC(=O)CCCCNC(=O)CCCC[C@@H]1SC[C@@H]2NC(=O)N[C@@H]21)C(=O)N[C@@H](Cc1c[nH]c2ccccc12)C(=O)N[C@@H](Cc1ccccc1)C(=O)N1CCC[C@H]1C(=O)N[C@@H](CC(N)=O)C(=O)N[C@@H](CCCNC(=N)N)C(=O)N[C@@H](CCCNC(=N)N)C(=O)N[C@@H](CCCCN)C(=O)N1CCC[C@H]1C(=O)N[C@@H](Cc1c[nH]c2ccccc12)C(=O)N[C@@H](CCCCN)C(=O)N[C@@H](CCCCN)C(=O)O [NES-Pen3P] | much greater | 
CC[C@H](C)[C@H](NC(=O)[C@H](CCCCN)NC(=O)[C@@H](NC(=O)[C@H](CCC(N)=O)NC(=O)[C@H](CCCNC(=N)N)NC(=O)[C@H](CCC(=O)O)NC(=O)[C@H](CC(N)=O)NC(=O)[C@H](CC(C)C)NC(=O)CNC(=O)[C@H](CC(C)C)NC(=O)[C@H](CCC(=O)O)NC(=O)[C@H](CCC(N)=O)NC(=O)[C@H](C)NC(=O)[C@H](CC(C)C)NC(=O)[C@H](CO)NC(=O)[C@H](CCC(N)=O)NC(=O)CCCCNC(=O)CCCC[C@@H]1SC[C@@H]2NC(=O)N[C@@H]21)[C@@H](C)CC)C(=O)N[C@@H](Cc1c[nH]c2ccccc12)C(=O)N[C@@H](Cc1ccccc1)C(=O)N[C@@H](CCC(N)=O)C(=O)N[C@@H](CC(N)=O)C(=O)N[C@@H](CCCNC(=N)N)C(=O)N[C@@H](CCCNC(=N)N)C(=O)N[C@@H](CCSC)C(=O)N[C@@H](CCCCN)C(=O)N[C@@H](Cc1c[nH]c2ccccc12)C(=O)N[C@@H](CCCCN)C(=O)N[C@@H](CCCCN)C(=O)O [NES-Penet] |  | not accompanied by any degradation
RQPKIWFPNRRKPWKK [Pen3P, RQPKIWFPNRRKPWKK, reference compound] | very slight passage | 
